Results as given in the NIST ThermoML archive (doi:10.1016/j.tca.2013.03.010).
± gives the expanded uncertainty stated by the source.

Legend:
[1] = xn = mol fraction of the nth substance listed; details: 101 kPa, Liquid; for viscosity: Capillary tube (Ostwald / Ubbelohde) method; for mass density: Vibrating tube method
[2] = 101 kPa, Liquid; for viscosity: Capillary tube (Ostwald / Ubbelohde) method; for mass density: Vibrating tube method

OCCCO [propan-1,3-diol] + OCCO
[1]
Details | mass density, 298.15 K [kg/m3] | mass density, 303.15 K [kg/m3] | mass density, 308.15 K [kg/m3] | viscosity, 298.15 K [mPa·s] | viscosity, 303.15 K [mPa·s] | viscosity, 308.15 K [mPa·s]
x2 = 0 | 1049.6 ± 0.9 | 1046.2 ± 0.9 | 1043.1 ± 0.9 | 41.36 ± 0.45 | 32.78 ± 0.36 | 26.34 ± 0.29
x2 = 0.1107 | 1055.3 ± 1 | 1051.7 ± 0.9 | 1048.5 ± 0.9 | 39.55 ± 0.43 | 31.2 ± 0.34 | 24.94 ± 0.27
x2 = 0.2024 | 1060.1 ± 1 | 1056.5 ± 1 | 1053.1 ± 0.9 | 37.7 ± 0.41 | 29.75 ± 0.32 | 23.7 ± 0.26
x2 = 0.3597 | 1069.3 ± 1 | 1065.7 ± 1 | 1061.9 ± 1 | 34.33 ± 0.37 | 26.96 ± 0.29 | 21.43 ± 0.23
x2 = 0.4617 | 1075.7 ± 1 | 1072 ± 1 | 1068.1 ± 1 | 31.96 ± 0.35 | 25.06 ± 0.27 | 19.91 ± 0.22
x2 = 0.551 | 1081.4 ± 1 | 1077.6 ± 1 | 1073.6 ± 1 | 29.75 ± 0.32 | 23.32 ± 0.25 | 18.56 ± 0.2
x2 = 0.6258 | 1086.2 ± 1 | 1082.3 ± 1 | 1078.3 ± 1 | 27.76 ± 0.3 | 21.77 ± 0.24 | 17.39 ± 0.19
x2 = 0.7354 | 1093.1 ± 1 | 1089.2 ± 1 | 1085.2 ± 1 | 24.77 ± 0.27 | 19.45 ± 0.21 | 15.66 ± 0.17
x2 = 0.8285 | 1099.1 ± 1 | 1095.2 ± 1 | 1091.1 ± 1 | 22.09 ± 0.24 | 17.39 ± 0.19 | 14.15 ± 0.15
x2 = 0.9105 | 1104.5 ± 1.1 | 1100.7 ± 1 | 1096.5 ± 1 | 19.62 ± 0.21 | 15.64 ± 0.17 | 12.82 ± 0.14

CC(O)CO (stereo not given) [1,2-propanediol] + OCCCO
[1], x1 = 1
Details | mass density [kg/m3] | viscosity [mPa·s]
298.15 K | 1032.7 ± 0.2 | 44.78 ± 0.2
303.15 K | 1028.8 ± 0.2 | 33.75 ± 0.15
308.15 K | 1025.2 ± 0.2 | 27 ± 0.12

OCCCO [propan-1,3-diol]
[2]
Details | mass density [kg/m3] | viscosity [mPa·s]
298.15 K | 1049.6 ± 0.9 | 41.36 ± 0.45
303.15 K | 1046.2 ± 0.9 | 32.78 ± 0.36
308.15 K | 1043.1 ± 0.9 | 26.34 ± 0.29

OCCO [1,2-ethanediol] + CC(O)CO
[1], x1 = 1
Details | mass density [kg/m3] | viscosity [mPa·s]
298.15 K | – | 16.87 ± 0.18
303.15 K | 1106 ± 1.1 | 13.59 ± 0.15
308.15 K | – | 11.34 ± 0.12

OCCO [1,2-ethanediol]
[2]
Details | mass density [kg/m3] | viscosity [mPa·s]
298.15 K | – | 16.87 ± 0.18
303.15 K | 1106 ± 1.1 | 13.59 ± 0.15
308.15 K | – | 11.34 ± 0.12

OCCCO [propan-1,3-diol] + CC(O)CO
[1]
Details | mass density, 298.15 K [kg/m3] | mass density, 303.15 K [kg/m3] | mass density, 308.15 K [kg/m3] | viscosity, 298.15 K [mPa·s] | viscosity, 303.15 K [mPa·s] | viscosity, 308.15 K [mPa·s]
x2 = 0 | 1049.6 ± 0.9 | 1046.2 ± 0.9 | 1043.1 ± 0.9 | 41.36 ± 0.45 | 32.78 ± 0.36 | 26.34 ± 0.29
x2 = 0.1002 | 1049.1 ± 0.8 | 1046 ± 0.8 | 1043 ± 0.8 | 41.77 ± 0.42 | 32.93 ± 0.33 | 26.45 ± 0.27
x2 = 0.2105 | 1048.3 ± 0.6 | 1045.6 ± 0.6 | 1042.8 ± 0.6 | 42.23 ± 0.39 | 33.12 ± 0.31 | 26.56 ± 0.25
x2 = 0.2994 | 1047.8 ± 0.5 | 1045.1 ± 0.5 | 1042.2 ± 0.5 | 42.59 ± 0.36 | 33.26 ± 0.28 | 26.66 ± 0.23
x2 = 0.4088 | 1046.9 ± 0.4 | 1044.1 ± 0.4 | 1041 ± 0.4 | 43.02 ± 0.33 | 33.43 ± 0.26 | 26.75 ± 0.21
x2 = 0.5002 | 1045.9 ± 0.4 | 1043 ± 0.4 | 1039.9 ± 0.4 | 43.38 ± 0.31 | 33.56 ± 0.24 | 26.84 ± 0.19
x2 = 0.5937 | 1044.7 ± 0.3 | 1041.7 ± 0.3 | 1038.5 ± 0.3 | 43.73 ± 0.28 | 33.66 ± 0.22 | 26.91 ± 0.18
x2 = 0.7125 | 1042.6 ± 0.3 | – | – | 44.08 ± 0.25 | 33.73 ± 0.2 | 26.94 ± 0.16
x2 = 0.7126 | – | 1039.3 ± 0.3 | 1036 ± 0.3 | – | – | –
x2 = 0.7996 | 1040.2 ± 0.2 | 1036.7 ± 0.2 | 1033.5 ± 0.2 | 44.31 ± 0.23 | 33.75 ± 0.18 | 26.96 ± 0.14
x2 = 0.9217 | 1036.5 ± 0.2 | 1033 ± 0.2 | 1029.7 ± 0.2 | 44.62 ± 0.21 | 33.76 ± 0.16 | 26.99 ± 0.13

CC(O)CO (stereo not given) [1,2-propanediol]
[2]
Details | mass density [kg/m3] | viscosity [mPa·s]
298.15 K | 1032.7 ± 0.2 | 44.78 ± 0.2
303.15 K | 1028.8 ± 0.2 | 33.75 ± 0.15
308.15 K | 1025.2 ± 0.2 | 27 ± 0.12

OCCO [1,2-ethanediol] + OCCCO
[1], x1 = 1
Details | mass density [kg/m3] | viscosity [mPa·s]
298.15 K | – | 16.87 ± 0.18
303.15 K | 1106 ± 1.1 | 13.59 ± 0.15
308.15 K | – | 11.34 ± 0.12

CC(O)CO (stereo not given) [1,2-propanediol] + OCCO
[1]
Details | mass density, 298.15 K [kg/m3] | mass density, 303.15 K [kg/m3] | mass density, 308.15 K [kg/m3] | viscosity, 298.15 K [mPa·s] | viscosity, 303.15 K [mPa·s] | viscosity, 308.15 K [mPa·s]
x2 = 0 | 1032.7 ± 0.2 | 1028.8 ± 0.2 | 1025.2 ± 0.2 | 44.78 ± 0.2 | 33.75 ± 0.15 | 27 ± 0.12
x2 = 0.1208 | 1041 ± 0.2 | 1036.9 ± 0.2 | 1033.3 ± 0.2 | 42.41 ± 0.21 | 32.1 ± 0.16 | 25.65 ± 0.13
x2 = 0.2353 | 1048.6 ± 0.3 | 1044.6 ± 0.3 | 1041 ± 0.3 | 40.03 ± 0.22 | 30.14 ± 0.17 | 24.13 ± 0.13
x2 = 0.3454 | 1056.1 ± 0.3 | 1052.1 ± 0.3 | 1048.5 ± 0.3 | 37.28 ± 0.23 | 28.08 ± 0.17 | 22.51 ± 0.14
x2 = 0.4345 | 1062.3 ± 0.3 | 1058.4 ± 0.3 | 1054.7 ± 0.3 | 34.74 ± 0.23 | 26.24 ± 0.18 | 21.05 ± 0.14
x2 = 0.5508 | 1070.8 ± 0.4 | 1066.9 ± 0.4 | 1063.4 ± 0.4 | 31.35 ± 0.23 | 23.8 ± 0.18 | 19.11 ± 0.14
x2 = 0.6303 | 1077 ± 0.5 | 1073.1 ± 0.5 | 1069.5 ± 0.5 | 28.91 ± 0.23 | 22.06 ± 0.18 | 17.78 ± 0.14
x2 = 0.7473 | 1086.6 ± 0.6 | 1082.7 ± 0.6 | 1079.2 ± 0.6 | 25.33 ± 0.23 | 19.52 ± 0.18 | 15.82 ± 0.14
x2 = 0.8302 | 1093.7 ± 0.8 | 1089.8 ± 0.8 | 1086.4 ± 0.8 | 22.72 ± 0.22 | 17.62 ± 0.17 | 14.39 ± 0.14
x2 = 0.9065 | 1100.6 ± 0.9 | 1096.8 ± 0.9 | 1093.4 ± 0.9 | 20.16 ± 0.2 | 15.86 ± 0.16 | 13.07 ± 0.13
